Source: the NIST ThermoML archive (doi:10.1016/j.jct.2010.05.002)

Assay: molar heat capacity at constant pressure
Conditions: 101.33 kPa, Crystal, Vacuum adiabatic calorimetry

CC(C)(C)c1ccc(-c2ccccc2)cc1 [4-(1,1-dimethylethyl)-1,1'-biphenyl]
Conditions	molar heat capacity at constant pressure [J/K/mol]
8.3 K	2.522
8.57 K	2.757
9.11 K	3.228
9.63 K	3.765
9.89 K	4.01
11.01 K	5.257
11.39 K	5.703
11.77 K	6.312
12.15 K	6.72
12.53 K	7.182
12.92 K	7.664
13.28 K	8.377
13.65 K	8.833
14.02 K	9.436
14.39 K	9.935
14.75 K	10.39
15.11 K	10.96
15.48 K	11.37
15.83 K	12.26
16.19 K	12.78
16.55 K	13.21
16.91 K	13.77
17.27 K	14.49
17.62 K	15.23
17.98 K	15.86
18.33 K	16.18
18.68 K	16.71
19.03 K	16.98
19.38 K	17.88
19.73 K	18.48
20.08 K	19.01
20.76 K	20.23
21.53 K	21.57
22.31 K	22.77
23.08 K	23.92
23.85 K	25.18
24.62 K	26.43
25.38 K	27.38
26.14 K	28.32
26.9 K	30.11
27.66 K	31.35
28.42 K	32.53
29.17 K	33.54
29.93 K	34.42
30.68 K	35.96
31.43 K	37.32
32.19 K	38.43
32.96 K	38.73
33.71 K	40.37
34.46 K	41.38
35.21 K	42.08
35.96 K	43.44
36.71 K	44.59
37.46 K	45.86
38.21 K	46.57
38.96 K	47.65
39.71 K	48.45
40.46 K	49.16
41.21 K	50.62
41.95 K	51.64
42.7 K	52.5
43.45 K	53.06
44.2 K	53.77
44.95 K	55.03
45.69 K	55.67
46.44 K	57.1
47.19 K	57.29
47.93 K	58.61
48.68 K	59.76
49.43 K	60.29
50.18 K	60.84
50.92 K	61.9
51.67 K	62.56
52.42 K	63.33
53.16 K	64.3
53.91 K	65.39
54.65 K	65.94
55.4 K	66.72
56.14 K	67.31
56.89 K	68.21
57.64 K	68.36
58.38 K	69.38
59.12 K	69.98
59.86 K	70.84
60.61 K	71.8
61.35 K	72.22
62.09 K	73.3
62.83 K	73.97
63.57 K	75.16
64.31 K	75.92
65.06 K	76.6
65.8 K	77.49
66.54 K	77.97
67.27 K	79.07
68.02 K	79.18
68.76 K	79.62
69.49 K	80.06
70.22 K	80.55
71.11 K	81.26
72.16 K	81.97
73.2 K	83.77
74.24 K	85.78
75.29 K	87.62
76.33 K	89.61
77.37 K	91.7
78.41 K	93.86
78.6 K	93.38
79.46 K	95.29
79.89 K	95.59
80.5 K	96.68
80.92 K	97.16
81.55 K	97.38
81.96 K	98.92
82.59 K	99.16
82.99 K	99.71
83.63 K	100.81
84.02 K	101.38
84.67 K	102.6
85.05 K	103.37
85.71 K	104.76
86.08 K	105.1
87.11 K	107.71
88.14 K	109.06
89.18 K	109.08
90.21 K	110.43
91.24 K	111.94
92.26 K	112.49
93.29 K	113.67
94.32 K	115.2
95.34 K	116.2
96.36 K	117.24
97.39 K	117.75
98.41 K	119.69
99.44 K	121.4
100.46 K	120.13
101.48 K	122.02
102.5 K	123.38
103.53 K	123.38
104.55 K	124.78
105.57 K	125.7
106.59 K	125.94
107.6 K	126.55
108.62 K	127.46
109.63 K	129.07
110.65 K	130.3
111.66 K	130.29
112.67 K	130.99
113.68 K	131.82
114.69 K	132.86
115.71 K	133.48
116.72 K	133.98
117.73 K	134.55
118.74 K	135.11
119.75 K	136.16
120.76 K	136.83
121.76 K	137.18
122.77 K	138
123.77 K	138.81
124.78 K	139.92
125.78 K	140.34
126.79 K	141.2
127.78 K	141.96
128.78 K	142.63
129.78 K	143.1
130.78 K	144.73
131.78 K	145.34
132.78 K	145.71
133.78 K	146.29
134.78 K	147.05
135.77 K	147.52
136.77 K	148.34
137.77 K	149.37
138.76 K	149.38
139.75 K	150.91
140.74 K	152.15
141.74 K	153
142.73 K	153.45
143.7 K	153.84
144.69 K	154.76
145.68 K	154.88
146.67 K	155.86
147.65 K	157.44
148.64 K	158.13
149.63 K	159.37
150.61 K	159.11
151.59 K	161.68
152.58 K	161.75
153.56 K	162.27
154.54 K	162.57
155.52 K	163.19
